Measured values as given in patent publication US5395611A, “Phenolic amine depigmenting and antimelanoma agents” (The Governors of the University of Alberta, priority 1992, dated 1995).
Entries after “also recorded” stand apart in the source; their conditions may differ.

Legend:
[1] = test system: plasma monoamine oxidase (MAO); experiment: Enzyme kinetics for monoamineoxidase (plasma MAO); assay type: biochemical
Procedure: (§1) Mushroom tyrosinase (400 units/mg) and plasma MAO (1000 units/gm) were obtained from Sigma Chemical Co. (St. Louis, Mo., USA). A reaction mixture consisted of a substrate of 7 to 8 different concentrations (40 to 500 μM for mushroom tyrosinase and 20 to 200 μM for MAO) and of either mushroom tyrosinase (2.5 μg) or MAO (10 μg) in 1.0 mL of 0.05M sodium phosphate buffer, pH 6.8 and 7.4 respectively. The reactions were carried out at 37° C. in a shaking water bath, and stopped by taking 100 μL of the reaction mixture and adding it to 900 μL of 0.4M HCLO4. The disappearance of substrate was followed using HPLC (high pressure liquid chromatography) Km and Vmax values were calculated from the Lineweaver-Burk plots.

B16 melanoma = experiment: In vivo growth inhibition of s.c. inoculated B16 melanoma; design: species or system mouse; conditions: for % Gi (growth inhibition): 200 mg/Kg
Procedure: Briefly, excised tumours were homogenized in normal saline.
The in vivo antimelanoma effect of the compounds were evaluated by percent growth inhibition of inoculated tumour (% g.i.). The percent g.i. was computed from the mean tumour volume at day 12 or 13 of the experiments; i.e., 100× (1- treated group/control group). Tumour volume was calculated by the following formula:
tumour volume=long axis×(short axis)^2 ×1/2.

[2] = test system: plasma monoamine oxidase (MAO); conditions: in words, prior knowledge; cited from earlier work
[3] = Urinary excretion after i.p. injection (metabolic assay); assay type: in vivo, mice; conditions: 5.2 mg/mouse
Procedure: Fifteen mice randomly divided into three groups of five were injected i.p. with a test agent (300 mg/kg) dissolved in N saline solution. Group 1 were injected with 4-S-CAP, group 2 with N-Ac-4-S-CAP, group 3 were controls. The mice are kept in metabolic cages; their urine is collected 3, 8 and 24 hr after injection, and the 4-S-CAP and N-Ac-4-S-CAP content is measured by HPLC in a system consisting of a Waters 600E liquid chromatography, with a Bondapak C18 column (3.0×300 mm; particle size, 10 μm) and a Waters 460 electrochemical detector. Mobile phase: 0.1M potassium phosphate buffer, pH 2.1, containing 0.1 mM Na2 EDTA methanol, 80:20 (v/v); column temperature, 60° C.; flow rate 1.0 ml/min. Urine samples are hydrolysed with 0.1M HCl before assay, and the phenols are detected at 850 mV against an Ag/AgCl reference electrode.

black guinea pig skin = conditions: topical application, cited from earlier work
melanocytes = experiment: Light and electron microscopy of follicular melanocytes; assay type: in vivo, mice; conditions: i.p.
Procedure: In […] of 4 mice (1 control and 1 for each compound) were treated daily with the control or compound injected i.p. The compounds tested were 4-S-CAP, N-Ac-4-S-CAP and α-Me-4-S-CAP. Samples of skin and regrowing hair follicles were excised under brief general anaesthesia on day 10 (late anagen phase), fixed in Karnovsky's solution (2.5% glutaraldehyde and 2.5% paraformaldehyde in 011M cacodylate buffer), and refixed in 1% osmium tetroxide in cadodylate buffer. Tissues were stained en bloc with 1.5% uranyl acetate in o.1M veronal buffer for 30 min, dehydrated in graded ethanol solutions, embedded in epoxy resin, and sectioned with a Potter-Blum ultramicrotome MT II. Sections 1.0 μm thick were stained with methylene blue for light microscopy, thin sections were stained with led citrate for electron microscopy.

[4] = acute toxicity, evaluated 100 to 1600 mg/Kg (Miura et al); cited from earlier work
in vivo = conditions: mouse, ip
Procedure: 3:1-85 1972. In accordance with this Protocol, ten to fifteen mice were used in each test group. They were weighed and randomized at day one after s.c. inoculation of B16 melanoma cells. From day five, the phenolic melanin precursors were administered i.p. daily for nine days. The test compounds were dissolved in normal saline, and sterilized by heating to 100° C. for 2 minutes. […] They were administered j.p. with the following doses: 400 mg/Kg - 4-S-CAP; 200 to 300 mg/Kg - 4-S-CAP; and 200 to 1200 mg/Kg - N-Ac-4-S-CAP. A catalytic amount of L-dopa, 25 mg/Kg and antidecarboxylase, carbidopa, 400 mg/Kg, were also administered. Carbidopa was given one hour prior to L-dopa administration. DTIC (NSC 4538) was used as a control drug at a dose of 60 mg/Kg. Acute toxicity of 4-S-CP and 4-S-CAP was evaluated from 100 to 1600 mg/Kg.
The B16 mouse melanoma was maintained by s.c. inoculation of tumour cells into the back of C57BL7J mice (5 to 6 weeks, female). […] Briefly, excised tumours were homogenized in normal saline. The homogenized tumour cells were then passed through a sterile 80 mesh stainless steel screen, washed with normal saline, centrifuged (500 g. for 10 minutes) and resuspended in normal saline. Suspensions of viable melanoma cells at the concentration of 1×10^6 per 0.1 ml were inoculated s.c. into both the right and left inguinal areas of C57BL/6J mice (female, 5 to 6 weeks old, 18 to 20 gm).

mushroom tyrosinase = experiment: Enzyme kinetics for tyrosinase; assay type: biochemical
Procedure: as §1
^a mushroom tyrosinase; 11 unit/ml of tyrosinase was used. One enzyme
unit will cause an increase in A280 of 0.001 per min at pH 6.8 at
25° C. using Ltyrosine as substrate.

black hair follicles = experiment: Depigmentation of new hair (eumelanin/PTCA content); assay type: in vivo, C57BL/6J black mice
Procedure: Female progeny were used in this testing when approximately 8 weeks old and weighing 17 grams.
Thirty mice were randomized into 6 groups of 5 (1 control and 1 for each compound). Starting on day 1, daily for 14 days the agent was injected i.p. or was infiltrated s.c. in an area where hair follicles had been plucked; the dose was 300 mg/kg body weight.
In the same 30 mice, hair follicles were harvested on day 22 (early telogen phase) and their eumelanin content analyzed. […] Briefly, a 10-mg hair sample is homogenized in water at a concentration of 10 mg/ml; the 200-μl homogenate is transferred to a screw-capped test tube, mixed with 1M H2 SO4 (800 μL) and oxidized with 3% KMnO4. The product, pyrrole-2,3,5-tricarboxylic acid (PTCA), is analyzed by HPLC with a UVL detector; samples are measured in duplicate. The eumelanin content is expressed as PTCA (ng/mg) against the PCTA content of BALB/c albino mice as control (≤10 ng/mg, the background value with our method, in which 1 ng corresponds roughly to a eumelanin content of 50 ng), and the degree of depigmentation is expressed as a percentage: (PTCA content of control sample minus PTCA content of experimental sample)/(PCTA content of control sample)×100.

follicular melanocytes = conditions: in words; cited from earlier work
[5] = in words; cited from earlier work
melanoma = conditions: in words; cited from earlier work
[6] = s.c., 300 mg/kg daily for 14 days, hair day 22

NCCSc1ccc(O)cc1 [4-S-CAP, 4-S-cysteaminylphenol, reference compound]
Substrate for plasma MAO ([1]; in words): substrate for both plasma MAO and tyrosinase | Km ([1]; plasma MAO, pH 7.4, 37° C.): 52.6 µM | % Gi (growth inhibition) (B16 melanoma; Experiment I): 54.0% | % Gi (growth inhibition) (B16 melanoma; Experiment II): 25.1% | Growth inhibition of B16 melanoma (B16 melanoma; in words): greater anti-melanoma effect at 200 mg/Kg than N-Ac-4-S-CAP | Substrate for plasma MAO (converted into aldehyde form) [2]: substrate for monoamineoxidase (MAO); also recorded: substrate not only for tyrosinase, but also for plasma monoamineoxidase (MAO) | Urinary excretion of unchanged compound, amount ([3]; 3 h after i.p. injection): 0.399 ± 0.018 mg | Urinary excretion of unchanged compound, amount ([3]; 8 h after i.p. injection): 0.443 ± 0.023 mg | Urinary excretion of unchanged compound, amount ([3]; 24 h after i.p. injection): 0.458 ± 0.021 mg | dose excreted at 3 h ([3]; urine, ip, 300 mg/kg, 3 h after i.p. injection, read-out: Urinary excretion of unchanged compound, % of dose): 7.7% | dose excreted at 8 h ([3]; urine, ip, 300 mg/kg, 8 h after i.p. injection, read-out: Urinary excretion of unchanged compound, % of dose): 8.5% | dose excreted at 24 h ([3]; urine, ip, 300 mg/kg, 24 h after i.p. injection, read-out: Urinary excretion of unchanged compound, % of dose): 8.8% | Inflammatory changes of the skin (black guinea pig skin; guinea pigs): inflammatory changes of the skin of the guinea pigs was prominent | Depigmentation of black guinea pig skin (black guinea pig skin): demonstrated depigmenting properties | Electron microscopy of melanocytes/melanosomes (melanocytes; 10 days): contained immature melanosomes at stages II and III | Light microscopy of hair follicles (melanocytes; day 10): the hair follicles contained functioning melanocytes and melanin pigments transferred into keratonocytes, although they were much sparser than in the controls | Lethal dose [4]: 400 mg/kg | MTD (in vivo): 200 to 300 mg/kg | Substrate for tyrosinase (mushroom tyrosinase; in words): substrate for both plasma MAO and tyrosinase | Km (mushroom tyrosinase; mushroom tyrosinase, pH 6.8, 37° C.): 117 µM | Depigmentation (black hair follicles; i.p., 300 mg/kg daily for 14 days, hair day 22): 87% | Depigmentation of new growth of black hair follicles (black hair follicles; in words): i.p. administration induced more depigmentation than s.c. | Depigmentation (black hair follicles; [6]): 47% | PTCA Content (black hair follicles; [6]): 458.3 ± 107.6 ng/mg | Effect on albino follicles (follicular melanocytes): no effect on the albino follicles | Effect on black hair follicles / black hair (follicular melanocytes): demonstrated cytotoxicity in the depigmentation of black hair follicles; also recorded: depigmentation of black hair as manifested by loss of functioning melanocytes | Hypotensive effect [5]: hypotensive | Inhibition of melanoma growth (melanoma): exhibited inhibition of melanoma growth | Prolonging lifespan of melanoma-bearing mice (melanoma): potent agent in prolonging the lifespan of melanoma-bearing mice
